Results as given in patent US5393869A, “Parathyroid hormone derivatives” (Takeda Chemical Industries, Ltd., priority 1990, dated 1995).
Starred links: 1 amine or outer side, 2 acyl side, 3 side chain; linkers in the order of their positions; H or OH if unused. Non-standard residues stand in square brackets, D forms with d. Residues, ends and D or L forms follow the SMILES beside them. No end group written: not given here. X1 = O=C([C@H](Cc1c(C2SCCS2)[nH]c2ccccc12)N[*:1])[*:2]

What follows are compounds tested against T1, PTH receptor (Mus musculus, UniProt P41593) (assay: cAMP production by PTH (1-34) analogues in MC3T3-EI osteoblast-like cells). Conditions: cAMP production, 0.01-100 nM analogue, room temperature 30 minutes, hPTH(1-34) = 1.00.
T1 construct: a mouse cranial bone-derived osteoblast-like cell strain, MC3T3-EI cells, cultivated on a 96-well multiplate; endogenous in cells; host or cells: MC3T3-E1 mouse osteoblast-like cells
T1 sequence (P41593 27-591): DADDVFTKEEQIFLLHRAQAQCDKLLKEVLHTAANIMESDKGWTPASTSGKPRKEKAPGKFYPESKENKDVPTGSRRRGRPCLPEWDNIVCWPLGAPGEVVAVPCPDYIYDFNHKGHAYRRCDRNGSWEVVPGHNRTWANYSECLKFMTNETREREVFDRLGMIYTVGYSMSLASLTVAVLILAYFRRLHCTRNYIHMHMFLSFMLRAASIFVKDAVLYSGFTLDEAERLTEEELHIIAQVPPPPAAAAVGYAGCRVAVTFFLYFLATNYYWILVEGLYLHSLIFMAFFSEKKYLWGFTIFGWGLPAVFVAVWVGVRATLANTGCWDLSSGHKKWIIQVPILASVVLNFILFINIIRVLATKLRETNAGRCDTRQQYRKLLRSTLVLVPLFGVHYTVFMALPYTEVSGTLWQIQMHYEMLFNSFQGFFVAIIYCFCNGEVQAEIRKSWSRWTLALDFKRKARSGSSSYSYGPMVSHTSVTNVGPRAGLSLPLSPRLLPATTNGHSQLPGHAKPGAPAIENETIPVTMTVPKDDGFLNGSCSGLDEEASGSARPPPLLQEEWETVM
Format: cell-based
Experimental: The biological activity of the peptide analogues was evaluated by a modified version of the method reported by Shigeno et al. in The Journal of Biological Chemistry 263, 18369-18377 (1988). A culture solution (Hank's solution, containing 20 mM N-2-hydroxyethylpiperazine-N'-2-ethanesulfonic acid (HEPES), 0.1% bovine serum albumin and 0.5 mM isobutylmethyl-xanthine) containing 0.01, 0.1, 1, 10 or 100 nM analogue was added in an amount of 100 μto a mouse cranial bone-derived osteoblast-like cell strain, MC3T3-EI cells, cultivated on a 96-well multiplate (Nunclon, Nunc), followed by reaction at room temperature for 30 minutes. After addition of 100 μof 0.2N hydrochloric acid, the mixture was immersed in boiling water for 2.5 minutes, and cyclic adenosine monophosphate (cAMP) produced by a PTH receptor was extracted from the cells. The total cAMP in the culture solution and the cells was assayed using a commercial radioimmunoassay kit (cyclic AMP [^125 I] kit "Du Pont-Daiichi", Daiichi Kagaku Yakuhin).

Row | Biological Activity (Represented by Relative Activity to hPTH(1-34)) | Compound
1 | 1.7 | CC[C@H](C)[C@H](NC(=O)[C@H](CCC(=O)O)NC(=O)[C@H](CO)NC(=O)[C@@H](NC(=O)[C@@H](N)CO)C(C)C)C(=O)N[C@@H](CCC(N)=O)C(=O)N[C@@H](CC(C)C)C(=O)N[C@@H](CCSC)C(=O)N[C@@H](Cc1c[nH]cn1)C(=O)N[C@@H](CC(N)=O)C(=O)N[C@@H](CC(C)C)C(=O)NCC(=O)N[C@@H](CCCCN)C(=O)N[C@@H](Cc1c[nH]cn1)C(=O)N[C@@H](CC(C)C)C(=O)N[C@@H](CC(N)=O)C(=O)N[C@@H](CO)C(=O)N[C@@H](CCSC)C(=O)N[C@@H](CCCNC(=N)N)C(=O)N[C@@H](CCCNC(=N)N)C(=O)N[C@@H](CCCNC(=N)N)C(=O)N[C@@H](CCC(=O)O)C(=O)N[C@@H](Cc1c(C2SCCS2)[nH]c2ccccc12)C(=O)N[C@@H](CC(C)C)C(=O)N[C@@H](CCCNC(=N)N)C(=O)N[C@@H](CCCCN)C(=O)N[C@@H](CCCCN)C(=O)N[C@@H](CC(C)C)C(=O)N[C@@H](CCC(N)=O)C(=O)N[C@@H](CC(=O)O)C(=O)N[C@H](C(=O)N[C@@H](Cc1c[nH]cn1)C(=O)N[C@@H](CC(N)=O)C(=O)N[C@@H](Cc1ccccc1)C(N)=O)C(C)C [(Arg^19,21,2-(1,3-dithiolan-2-yl)-Trp^23)hPTH(1-34)NH2] (H-SVSEIQLMHNLGKHLNSMRRRE[X1]LRKKLQDVHNF-NH2)
2 | 2.5 | CC[C@H](C)[C@H](NC(=O)[C@H](CCC(=O)O)NC(=O)[C@H](CO)NC(=O)[C@@H](NC(=O)[C@@H](N)CO)C(C)C)C(=O)N[C@@H](CCC(N)=O)C(=O)N[C@@H](CC(C)C)C(=O)N[C@@H](CCSC)C(=O)N[C@@H](Cc1c[nH]cn1)C(=O)N[C@@H](CC(N)=O)C(=O)N[C@@H](CC(C)C)C(=O)NCC(=O)N[C@@H](CCCCN)C(=O)N[C@@H](Cc1c[nH]cn1)C(=O)N[C@@H](CC(C)C)C(=O)N[C@@H](CC(N)=O)C(=O)N[C@@H](CO)C(=O)N[C@@H](CCSC)C(=O)N[C@@H](CCC(=O)O)C(=O)N[C@@H](CCCNC(=N)N)C(=O)N[C@H](C(=O)N[C@@H](CCC(=O)O)C(=O)N[C@@H](Cc1c[nH]c2ccccc12)C(=O)N[C@@H](CC(C)C)C(=O)N[C@@H](CCCNC(=N)N)C(=O)N[C@@H](CCCCN)C(=O)N[C@@H](CCC(N)=O)C(=O)N[C@@H](CC(C)C)C(=O)N[C@@H](CCC(N)=O)C(=O)N[C@@H](CC(=O)O)C(=O)N[C@H](C(=O)N[C@@H](Cc1c[nH]cn1)C(=O)N[C@@H](CC(N)=O)C(=O)N[C@@H](Cc1ccccc1)C(=O)O)C(C)C)C(C)C [[Gln^27] hPTH (1-34), (Gln^27)hPTH(1-34)]
3 | 0.9 | CC[C@H](C)[C@H](NC(=O)[C@H](CCC(=O)O)NC(=O)[C@H](CO)NC(=O)[C@@H](NC(=O)[C@@H](N)CO)C(C)C)C(=O)N[C@@H](CCC(N)=O)C(=O)N[C@@H](CC(C)C)C(=O)N[C@@H](CCSC)C(=O)N[C@@H](Cc1c[nH]cn1)C(=O)N[C@@H](CC(N)=O)C(=O)N[C@@H](CC(C)C)C(=O)NCC(=O)N[C@@H](CCCCN)C(=O)N[C@@H](Cc1c[nH]cn1)C(=O)N[C@@H](CC(C)C)C(=O)N[C@@H](CC(N)=O)C(=O)N[C@@H](CO)C(=O)N[C@@H](CCSC)C(=O)N[C@@H](CCC(=O)O)C(=O)N[C@@H](CCCNC(=N)N)C(=O)N[C@H](C(=O)N[C@@H](CCC(=O)O)C(=O)N[C@@H](Cc1c[nH]c2ccccc12)C(=O)N[C@@H](CC(C)C)C(=O)N[C@@H](CCCNC(=N)N)C(=O)N[C@@H](Cc1c[nH]cn1)C(=O)N[C@@H](CCCCN)C(=O)N[C@@H](CC(C)C)C(=O)N[C@@H](CCC(N)=O)C(=O)N[C@@H](CC(=O)O)C(=O)N[C@H](C(=O)N[C@@H](Cc1c[nH]cn1)C(=O)N[C@@H](CC(N)=O)C(=O)N[C@@H](Cc1ccccc1)C(N)=O)C(C)C)C(C)C [[His^26] hPTH (1-34)NH2, (His^26)hPTH(1-34(NH2]
4 | 1.00 | CC[C@H](C)[C@H](NC(=O)[C@H](CCC(=O)O)NC(=O)[C@H](CO)NC(=O)[C@@H](NC(=O)[C@@H](N)CO)C(C)C)C(=O)N[C@@H](CCC(N)=O)C(=O)N[C@@H](CC(C)C)C(=O)N[C@@H](CCSC)C(=O)N[C@@H](Cc1c[nH]cn1)C(=O)N[C@@H](CC(N)=O)C(=O)N[C@@H](CC(C)C)C(=O)NCC(=O)N[C@@H](CCCCN)C(=O)N[C@@H](Cc1c[nH]cn1)C(=O)N[C@@H](CC(C)C)C(=O)N[C@@H](CC(N)=O)C(=O)N[C@@H](CO)C(=O)N[C@@H](CCSC)C(=O)N[C@@H](CCC(=O)O)C(=O)N[C@@H](CCCNC(=N)N)C(=O)N[C@H](C(=O)N[C@@H](CCC(=O)O)C(=O)N[C@@H](Cc1c[nH]c2ccccc12)C(=O)N[C@@H](CC(C)C)C(=O)N[C@@H](CCCNC(=N)N)C(=O)N[C@@H](CCCCN)C(=O)N[C@@H](CCCCN)C(=O)N[C@@H](CC(C)C)C(=O)N[C@@H](CCC(N)=O)C(=O)N[C@@H](CC(=O)O)C(=O)N[C@H](C(=O)N[C@@H](Cc1c[nH]cn1)C(=O)N[C@@H](CC(N)=O)C(=O)N[C@@H](Cc1ccccc1)C(=O)O)C(C)C)C(C)C [hPTH (1-34), hPTH(1-34), reference compound]
5 | 1.1 | CC[C@H](C)[C@H](NC(=O)[C@H](CCC(=O)O)NC(=O)[C@H](CO)NC(=O)[C@@H](NC(=O)[C@@H](N)CO)C(C)C)C(=O)N[C@@H](CCC(N)=O)C(=O)N[C@@H](CC(C)C)C(=O)N[C@@H](CCSC)C(=O)N[C@@H](Cc1c[nH]cn1)C(=O)N[C@@H](CC(N)=O)C(=O)N[C@@H](Cc1ccccc1)C(=O)NCC(=O)N[C@@H](CCCCN)C(=O)N[C@@H](Cc1c[nH]cn1)C(=O)N[C@@H](CC(C)C)C(=O)N[C@@H](CC(N)=O)C(=O)N[C@@H](CO)C(=O)N[C@@H](CCSC)C(=O)N[C@@H](CCC(=O)O)C(=O)N[C@@H](CCCNC(=N)N)C(=O)N[C@H](C(=O)N[C@@H](CCC(=O)O)C(=O)N[C@@H](Cc1c[nH]c2ccccc12)C(=O)N[C@@H](CC(C)C)C(=O)N[C@@H](CCCNC(=N)N)C(=O)N[C@@H](CCCCN)C(=O)N[C@@H](CCCCN)C(=O)N[C@@H](CC(C)C)C(=O)N[C@@H](CCC(N)=O)C(=O)N[C@@H](CC(=O)O)C(=O)N[C@H](C(=O)N[C@@H](Cc1c[nH]cn1)C(=O)N[C@@H](CC(N)=O)C(=O)N[C@@H](Cc1ccccc1)C(=O)O)C(C)C)C(C)C [[Phe^11] hPTH (1-34), (Phe^11)hPTH(1-34)]
6 | 0.9 | SVSEIQLLHNFGKHLNSLERVEWLRKKLQDVHNF-NH2 [[Leu^8, Phe^11, Leu^18] hPTH (1-34)NH2, (Leu^8, Phe^11,Leu^18)hPTH(1-34)NH2]

Same assay, conditions: human PTH (1-34) added as a standard, 0.01-100 nM

Row | Compound | cAMP production of the standard
7 | CC[C@H](C)[C@H](NC(=O)[C@H](CCC(=O)O)NC(=O)[C@H](CO)NC(=O)[C@@H](NC(=O)[C@@H](N)CO)C(C)C)C(=O)N[C@@H](CCC(N)=O)C(=O)N[C@@H](CC(C)C)C(=O)N[C@@H](CCSC)C(=O)N[C@@H](Cc1c[nH]cn1)C(=O)N[C@@H](CC(N)=O)C(=O)N[C@@H](CC(C)C)C(=O)NCC(=O)N[C@@H](CCCCN)C(=O)N[C@@H](Cc1c[nH]cn1)C(=O)N[C@@H](CC(C)C)C(=O)N[C@@H](CC(N)=O)C(=O)N[C@@H](CO)C(=O)N[C@@H](CCSC)C(=O)N[C@@H](CCC(=O)O)C(=O)N[C@@H](CCCNC(=N)N)C(=O)N[C@H](C(=O)N[C@@H](CCC(=O)O)C(=O)N[C@@H](Cc1c[nH]c2ccccc12)C(=O)N[C@@H](CC(C)C)C(=O)N[C@@H](CCCNC(=N)N)C(=O)N[C@@H](CCCCN)C(=O)N[C@@H](CCCCN)C(=O)N[C@@H](CC(C)C)C(=O)N[C@@H](CCC(N)=O)C(=O)N[C@@H](CC(=O)O)C(=O)N[C@H](C(=O)N[C@@H](Cc1c[nH]cn1)C(=O)N[C@@H](CC(N)=O)C(=O)N[C@@H](Cc1ccccc1)C(=O)O)C(C)C)C(C)C [hPTH (1-34), hPTH(1-34), reference compound] | increase in cAMP production depending on the concentration
